# Results reported in patent publication US11584765B2 (priority 2017, dated 2023).
# Tested on: C57BL/6 mice
# Test: animal or person
# Type: in vivo
# Conditions: Mus musculus, sc, 0.5 h, s.c. administration, 30 min, 55° C. water, read-out: ED50 (mg/kg) at 30 min on C57BL/6 mice in Warm-water Tail-flick Test
row,Structure (SMILES),ED50 [mg/kg]
1,"CCOCC1(CCc2ccccc2)CCN(Cc2cccn2-c2cccnc2)C1 (stereo not shown) [Compound 315, 3-(2-((3-(ethoxymethyl)-3-phenethylpyrrolidin-1-yl)methyl)-1H-pyrrol-1-yl)pyridine]",> 10
2,"CCOCC1(CCc2ccccc2)CCN(Cc2ccccc2-c2cccs2)C1 (stereo not shown) [Compound 316, 3-(ethoxymethyl)-3-phenethyl-1-(2-(thiophen-2-yl)benzyl)pyrrolidine]",> 10
3,CCOCC1(CCc2ccccc2)CCN(Cc2ccccc2-c2ccco2)C1 (stereo not shown) [Compound 317],> 10
4,"CCOC[C@@]1(CCc2ccsc2)CCN(Cc2ccc(C)nc2)C1 [Compound 318, (S)-5-((3-(ethoxymethyl)-3-(2-(thiophen-3-yl)ethyl)pyrrolidin-1-yl)methyl)-2-methylpyridine]",< 10
5,"CCOC[C@@]1(CCc2ccccc2)CCN(Cc2ccc(C)nc2)C1 [Compound 319, (S)-5-((3-(ethoxymethyl)-3-phenethylpyrrolidin-1-yl)methyl)-2-methylpyridine]",< 10
6,"CCOC[C@@]1(CCc2ccc(F)cc2)CCN(Cc2ccc(C)nc2)C1 [Compound 320, (S)-5-((3-(ethoxymethyl)-3-(4-fluoro-phenethyl)pyrrolidin-1-yl)methyl)-2-methylpyridine]",< 10
7,"CCOC[C@@]1(CCc2cc(C)cs2)CCN(Cc2ccc(C)nc2)C1 [Compound 321, (S)-5-((3-(ethoxymethyl)-3-(2-(4-methylthiophen-2-yl)ethyl)pyrrolidin-1-yl)methyl)-2-methylpyridine]",< 10
8,"CCOC[C@@]1(CCc2ccc(F)cc2)CCN(Cc2cccnc2)C1 [Compound 322, (S)-3-((3-(ethoxymethyl)-3-(4-fluorophenethyl)pyrrolidin-1-yl)methyl)pyridine]",< 10
9,"CCOC[C@@]1(CCc2csc(C)c2)CCN(Cc2cccnc2)C1 [Compound 323, (S)-3-((3-(ethoxymethyl)-3-(2-(5-methylthiophen-3-yl)ethyl)pyrrolidin-1-yl)methyl)pyridine]",< 10
10,"CCOC[C@@]1(CCc2ccsc2)CCN(Cc2ccc(NC(C)=O)cc2)C1 [Compound 324, (S)-N-(4-((3-(ethoxymethyl)-3-(2-(thiophen-3-yl)ethyl)pyrrolidin-1-yl)methyl)phenyl)acetamide]",< 10
11,"CCOCC1(CCc2ccccc2)CCN(C(C)c2cccnc2)CC1 (stereo not shown) [Compound 327, 3-(1-(4-(ethoxymethyl)-4-phenethylpiperidin-1-yl)ethyl)pyridine]",< 10
12,"Cc1ccc(C(C)N2CCC(CCc3ccccc3)(c3ccccn3)CC2)c(C)n1 (stereo not shown) [Compound 328, 2,6-dimethyl-3-(1-(4-phenethyl-4-(pyridin-2-yl)piperidin-1-yl)ethyl)pyridine]",< 10
13,"CCOC[C@@]1(CCc2cc(C)cs2)CCN(Cc2ccc(C)nc2C)C1 [Compound 329, (S)-3-((3-(ethoxymethyl)-3-(2-(4-methylthiophen-2-yl)ethyl)pyrrolidin-1-yl)methyl)-2,6-dimethylpyridine]",< 10
14,"CCOC[C@@]1(CCc2csc(C)c2)CCN(Cc2ccc(C)nc2C)C1 [Compound 330, (S)-3-((3-(ethoxymethyl)-3-(2-(5-methylthiophen-yl)ethyl)pyrrolidin-1-yl)methyl)-2,6-dimethylpyridine]",< 10
15,"CCOC[C@@]1(CCc2cscc2C)CCN(Cc2ccc(C)nc2C)C1 [Compound 331, (S)-3-((3-(ethoxymethyl)-3-(2-(4-methylthiophen-3-yl)ethyl)pyrrolidin-1-yl)methyl)-2,6-dimethylpyridine]",< 10
16,"CCOCC1(CCc2ccccc2)CCN(C(C)c2cnn(C)c2)C1 (stereo not drawn) [Compound 332, 4-(1-(3-(ethoxymethyl)-3-phenethylpyrrolidin-1-yl)ethyl)-l-methyl-1H-pyrazole]",< 10
17,"CCOC[C@@]1(CCc2cccs2)CCN(Cc2ccc(C)nc2)C1 [Compound 333, (S)-5-((3-(ethoxymethyl)-3-(2-(thiophen-2-yl)ethyl)pyrrolidin-1-yl)methyl)-2-methylpyridine]",< 10
18,"CCOC[C@@]1(CCc2cccs2)CCN(Cc2ccc(C)nc2C)C1 [Compound 334, (S)-3-((3-(ethoxymethyl)-3-(2-(thiophen-2-yl)ethyl)pyrrolidin-1-yl)methyl)-2,6-dimethylpyridine]",< 10
19,"CCOC[C@@]1(CCc2csc(C)c2)CCN(Cc2ccc(C)nc2)C1 [Compound 335, (S)-5-((3-(ethoxymethyl)-3-(2-(5-methylthiophen-3-yl)ethyl)pyrrolidin-1-yl)methyl)-2-methylpyridine]",< 10
20,CCOC[C@@]1(CCc2ccsc2)CCN(Cc2ccc(C)nc2C)C1 [Compound 336],< 10
21,CCOC[C@@]1(CCc2cc(C)cs2)CCN(Cc2cccnc2)C1.Cl [Compound 337],< 10
22,"CCOCC1(CCc2ccccc2)CCN(CC(O)c2ccc(C)nc2)C1 (stereo not shown) [Compound 338, 2-(3-(ethoxymethyl)-3-phenethylpyrrolidin-1-yl)-1-(6-methylpyridin-3-yl)ethanol]",> 10

row,Structure (SMILES),ED50 [mg/kg]
1,"Cc1ccc(N(C)N2CCC(CCc3ccccc3)(c3ccccn3)CC2)c(C)n1 [Compound 339, N,2,6-trimethyl-N-(4-phenethyl-4-(pyridin-2-yl)piperidin-1-yl)pyridin-3-amine]",> 10
2,"CCOCC1(CCc2ccccc2)CCN(Cc2csc(C)n2)C1 (stereo not shown) [Compound 340, 4-((3-(ethoxymethyl)-3-phenethylpyrrolidin-1-yl)methyl)-2-methylthiazole]",> 10
3,"CCOCC1(CCc2ccccc2)CCN(C(C)c2csc(C)n2)C1 (stereo not shown) [Compound 341, 4-(1-(3-(ethoxymethyl)-3-phenethylpyrrolidin-1-yl)ethyl)-2-methylthiazole]",< 10
4,"CCOCC1(CCc2ccccc2)CCN(C(CO)c2ccc(C)nc2)C1 (stereo not shown) [Compound 342, 2-(3-(ethoxymethyl)-phenethylpyrrolidin-1-yl)-2-(6-methylpyridin-3-yl)ethanol]",< 10
5,"CCOCC1(CCc2ccccc2)CCN(C(C)(C)c2cccnc2)C1 (stereo not shown) [Compound 343, 3-(2-(3-(ethoxymethyl)-3-phenethylpyrrolidin-1-yl)propan-2-yl)pyridine]",< 10
6,CCOC[C@@]1(CCc2ccc(F)s2)CCN(Cc2ccc(C)nc2)C1 [Compound 344],< 10
7,"CCOC[C@@]1(CCc2ccc(F)s2)CCN(Cc2cccnc2)C1 [Compound 345, (S)-3-((3-(ethoxymethyl)-3-(2-(5-fluorothiophen-2-yl)ethyl)pyrrolidin-1-yl)methyl)pyridine]",< 10
8,"CCOCC1(CCc2ccccc2)CCN(C(C)c2cnc(C)s2)C1 (stereo not shown) [Compound 346, 5-(1-(3-(ethoxymethyl)-3-phenethylpyrrolidin-1-yl)ethyl)-2-methylthiazole]",< 10
9,"CCOCC1(CCc2ccccc2)CCN(C(C)C(O)c2ccc(C)nc2)C1 (stereo not shown) [Compound 347, 2-(3-(ethoxymethyl)-3-phenethylpyrrolidin-1-yl)-1-(6-methylpyridin-3-yl)propan-1-ol]",> 10
10,"Cc1ccc(CN2CC[C@](CCc3ccsc3)([C@@H]3CCCO3)C2)cn1 [Compound 348, 2-methyl-5-(((S)-3-((S)-tetrahydrofuran-2-yl)-3-(2-(thiophen-3-yl)ethyl)pyrrolidin-1-yl)methyl)pyridine]",< 10
11,"CCOCC1(CCc2ccccn2)CCN(C(C)c2ccc(C)nc2)C1 (stereo not shown) [Compound 349, 5-(1-(3-(ethoxymethyl)-3-(2-(pyridin-2-yl)ethyl)pyrrolidin-1-yl)ethyl)-2-methylpyridine]",< 10
12,"CCOCC1(CCc2cccnc2)CCN(C(C)c2ccc(C)nc2)C1 (stereo not shown) [Compound 350, 5-(1-(3-(ethoxymethyl)-3-(2-(pyridin-3-yl)ethyl)pyrrolidin-1-yl)ethyl)-2-methylpyridine]",< 10
13,"CCOCC1(CCc2ncccn2)CCN(C(C)c2ccc(C)nc2)C1 (stereo not shown) [Compound 351, 2-(2-(3-(ethoxymethyl)-1-(1-(6-methylpyridin-3-yl)ethyl)pyrrolidin-3-yl)ethyl)pyrimidine]",< 10
14,"CCOC[C@]1(CCc2ccsc2)CCN(C(C)(C)c2ccc(C)nc2)C1 [Compound 352, (R)-5-(2-(3-(ethoxymethyl)-3-(2-(thiophen-3-yl)ethyl)pyrrolidin-1-yl)propan-2-yl)-2-methylpyridine]",< 10
15,"CCOC[C@@]1(CCc2cccs2)CCN(C(C)(C)c2ccc(C)nc2)C1 [Compound 353, (S)-5-(2-(3-(ethoxymethyl)-3-(2-(thiophen-2-yl)ethyl)pyrrolidin-1-yl)propan-2-yl)-2-methylpyridine]",< 10
16,"CCOC[C@@]1(CCc2csc(C)c2)CCN(C(C)(C)c2ccc(C)nc2)C1 [Compound 354, (S)-5-(2-(3-(ethoxymethyl)-3-(2-(5-methylthiophen-3-yl)ethyl)pyrrolidin-1-yl)propan-2-yl)-2-methylpyridine]",< 10
17,"CCOC[C@@]1(CCc2cc(C)cs2)CCN(C(C)(C)c2ccc(C)nc2)C1 [Compound 355, (S)-5-(2-(3-(ethoxymethyl)-3-(2-(4-methylthiophen-2-yl)ethyl)pyrrolidin-1-yl)propan-2-yl)-2-methylpyridine]",< 10
18,"CCOC[C@@]1(CCc2ccsc2)CCN(C(C)(C)c2ccc(C)nc2)C1 [Compound 356, (S)-5-(2-(3-(ethoxymethyl)-3-(2-(thiophen-3-yl)ethyl)pyrrolidin-1-yl)propan-2-yl)-2-methylpyridine]",< 10
19,"CCOCC1(CCc2cnccn2)CCN(C(C)c2ccc(C)nc2)C1.Cl (stereo not shown) [Compound 357, 2-(2-(3-(ethoxymethyl)-1-(1-(6-methylpyridin-3-yl)ethyl)pyrrolidin-3-yl)ethyl)pyrazine HCl]",< 10
20,"CCOCC1(CCc2nccn2C)CCN(C(C)c2ccc(C)nc2)C1 (stereo not shown) [Compound 358, 5-(1-(3-(ethoxymethyl)-3-(2-(1-methyl-1H-imidazol-2-yl)ethyl)pyrrolidin-1-yl)ethyl)-2-methylpyridine]",> 10
21,"CCOC[C@@]1(CCc2ccccn2)CCN(C(C)(C)c2ccc(C)nc2)C1 [Compound 359, (S)-5-(2-(3-(ethoxymethyl)-3-(2-(pyridin-2-yl)ethyl)pyrrolidin-1-yl)propan-2-yl)-2-methylpyridine]",< 10
